The source of these data is US4027016A, “Everninomicin antibacterial derivatives, electrochemical method for their manufacture, method for their use as antibacterial agents, and pharmaceutical compositions useful therefor” (Schering Corporation, priority 1976, dated 1977).

The subject of data set [1] is Staphylococcus aureus Strain Ziegler. The data set can be described thus: Microbiological Activity (in vitro), Staphylococcus aureus Strain Ziegler. Format: cell-based.
Data set [2] concerns Staphylococcus aureus Strain Wood. The experiment in a line: Microbiological Activity (in vitro), Staphylococcus aureus Strain Wood. It is filed as cell-based.
Data set [3] relates to Staphylococcus aureus Strain 59N. The data set can be described thus: Microbiological Activity (in vitro), Staphylococcus aureus Strain 59N. It is filed as cell-based. As to conditions: STRAIN59N.
Data set [4] has as its system Staphylococcus aureus Strain 209B. The experiment in a line: Microbiological Activity (in vitro), Staphylococcus aureus Strain 209B. Format: cell-based. The note with it: STRAIN209B.
Data set [5] can be described thus: Peak Serum Levels in Dogs. It is filed as in vivo, dog. The note with it: for Peak Serum Levels in Dogs: 10 mg/kg i.m., single dose, agar diffusion assay of serum. The protocol:
In determining peak serum levels, the animal tested (e.g. dog) is given a single dose of 10 mg/kg of the everninomicin D derivative, blood samples are taken periodically, and the serum thereof is assayed for antibacterial activity by an agardiffusion-assay as described by Weinstein et al., Antimicrobial Agents and Chemotherapy, p. 24 (1964).
In general terms: Agar diffusion results depend on both activity and mobility in agar.

Data set [6] concerns Staphylococcus aureus Strain Gray. The data set can be described thus: Microbiological Activity (in vitro), Staphylococcus aureus Strain Gray. Format: cell-based.
In data set [7] the test system is bacteria. As to conditions: known compounds, cited from earlier work.
Data set [8] is described as follows: pKa. Format: physicochemical.
Data set [9] concerns gram-positive bacteria. The data set can be described thus: Antibacterial activity against gram-positive bacteria (in words). Format: cell-based. The note with it: for antibacterial activity in vitro against gram-positive bacteria: e.g. Staphylococcus aureus, Staph. 11631, Staph. W., Streptococcus pyogenes C, Strep. pyogenes C-203, Bacillus subtilis.
The subject of data set [10] is bacteria which are resistant to other antibacterial agents. The experiment in a line: Antibacterial activity against resistant bacteria (in words). As to conditions: resistant to penicillin, penicillinase-resistant penicillins, tetracycline, macrolides such as erythromycin, lincomycin. Format: cell-based.
Data set [11] concerns gram-negative bacteria. The data set can be described thus: Antibacterial activity against gram-negative bacteria (in words). It is filed as cell-based. As to conditions: certain gram-negative bacteria.
The test system of data set [12] is bacteria. The data set can be described thus: Antibacterial activity, general (in words). As to conditions: when administered by injection.

Molecules are shown by their SMILES. In brackets after ≈: the same amount, converted by molar mass. Where a name gives a salt, the structure may show the parent alone. Read-outs that look alike come from different tables or passages of the source.

One may read the MIC as the smallest concentration in the dilution series that meets the test's criterion for growth inhibition. Low values mean greater potency, high ones weaker potency. Turning to `COCC1OC(OC2OCC3OC4(OCC(O)(C(C)OC)C5OCOC54)OC3C2OC)C(OC)C(O)C1OC1OC(C)C(OC)C(OC2CC3(C)OC4(CC(O)C(OC5CC(OC6CC(C)(NO)C(OC)C(C)O6)C(OC(=O)c6c(C)c(Cl)c(O)c(Cl)c6OC)C(C)O5)C(C)O4)OC3C(C)O2)C1O` (stereo not shown) [Hydroxylaminoeverninomicin D Sodium salt, reference compound], the MIC was 0.06 µg/mL in data set [1]; 0.06 µg/mL in data set [2]; 0.03 µg/mL in data set [3]; 0.06 µg/mL in data set [4]; 0.06 µg/mL in data set [6]. The “Peak Serum Levels in Dogs” value in [5] was 20-30.

On to `COCC1OC(OC2OCC3OC4(OCC(O)(C(C)OC)C5OCOC54)OC3C2OC)C(OC)C(O)C1OC1OC(C)C(OC)C(OC2OC(C)C3OC4(CC(O)C(OC5CC(O)C(OC(=O)c6c(C)c(Cl)c(O)c(Cl)c6OC)C(C)O5)C(C)O4)OC3(C)C2O)C1O` (stereo not shown) [desevernitrose everninomicin B], for which, in [7] (U.S. Pat. No. 3,920,629), the antibacterial activity entry was “having anti-bacterial activity”.

In the case of `COCC1OC(OC2OCC3OC4(OCC(O)C5OCOC54)OC3C2OC)C(OC)C(O)C1OC1OC(C)C(OC)C(OC2CC3(C)OC4(CC(O)C(OC5CC(O)C(OC(=O)c6c(C)c(Cl)c(O)c(Cl)c6OC)C(C)O5)C(C)O4)OC3C(C)O2)C1O` (stereo not shown) [desevernitrose everninomicin C], the antibacterial activity entry in [7] (U.S. Pat. No. 3,920,629) was “having anti-bacterial activity”.

The term pKa denotes the pH at which an ionisable group is half protonated. Molecule `COCC1OC(OC2OCC3OC4(OCC(O)(C(C)OC)C5OCOC54)OC3C2OC)C(OC)C(O)C1OC1OC(C)C(OC)C(OC2CC3(C)OC4(CC(O)C(OC5CC(O)C(OC(=O)c6c(C)c(Cl)c(O)c(Cl)c6OC)C(C)O5)C(C)O4)OC3C(C)O2)C1O` (stereo not shown) [desevernitrose everninomicin D] yielded a pKa in data set [8] of 7.5. In [7] (U.S. Pat. No. 3,920,629), the antibacterial activity result is “having anti-bacterial activity”.

`COCC1OC(OC2OCC3OC4(OCC(O)(C(C)OC)C5OCOC54)OC3C2OC)C(OC)C(O)C1OC1OC(C)C(OC)C(OC2OC(C)C3OC4(CC(O)C(OC5CC(OC6CC(C)(O)C(OC)C(C)O6)C(OC(=O)c6c(C)c(Cl)c(O)c(Cl)c6OC)C(C)O5)C(C)O4)OC3(C)C2O)C1O` (stereo not shown) [everninomicin B-7]: in [9], the “inhibiting the growth of gram-positive bacteria” value (“inhibiting the growth” for short) is “antibacterial activity against gram-positive bacteria” and the “antibacterial activity in vitro against gram-positive bacteria” value (from here on “antibacterial activity in vitro”) is reported as “narrow spectrum antibacterial activity in vitro against gram-positive bacteria”. In data set [10], the “antibacterial activity against resistant bacteria” value is “exhibit antibacterial activity against bacteria which are resistant to other antibacterial agents”.

For `COCC1OC(OC2OCC3OC4(OCC(O)C5OCOC54)OC3C2OC)C(OC)C(O)C1OC1OC(C)C(OC)C(OC2CC3(C)OC4(CC(O)C(OC5CC(OC6CC(C)(O)C(OC)C(C)O6)C(OC(=O)c6c(C)c(Cl)c(O)c(Cl)c6OC)C(C)O5)C(C)O4)OC3C(C)O2)C1O` (stereo not shown) [everninomicin C-7], in data set [9], the “inhibiting the growth” value is “antibacterial activity against gram-positive bacteria” and the “antibacterial activity in vitro” value is reported as “narrow spectrum antibacterial activity in vitro against gram-positive bacteria”. Further, the “antibacterial activity against resistant bacteria” value in [10] is given as “exhibit antibacterial activity against bacteria which are resistant to other antibacterial agents”.

For the molecule `COCC1OC(OC2OCC3OC4(OCC(O)(C(C)OC)C5OCOC54)OC3C2OC)C(OC)C(O)C1OC1OC(C)C(OC)C(OC2CC3(C)OC4(CC(O)C(OC5CC(OC6CC(C)(O)C(OC)C(C)O6)C(OC(=O)c6c(C)c(Cl)c(O)c(Cl)c6OC)C(C)O5)C(C)O4)OC3C(C)O2)C1O` [everninomicin D-7], the minimal inhibitory concentration (MIC) in data set [1] came to 0.75 µg/mL (≈ 0.497 µM); in data set [2], 0.75 µg/mL (≈ 0.497 µM); in [3], 0.075 µg/mL (≈ 0.0497 µM); in data set [4] it was 0.3 µg/mL (≈ 0.199 µM); in [6], 0.3 µg/mL (≈ 0.199 µM). In data set [11], the “susceptibility of gram-negative bacteria” value was “certain gram-negative bacteria are also susceptible”. Further, the “Peak Serum Levels in Dogs” value in data set [5] is on record as 15-60. The “absorption and serum levels in the dog” value in [5] (when administered by injection) is listed as “rapidly absorbed, producing high serum levels in the dog”. Moreover, the “inhibiting the growth” value in [9] is reported as “particularly effective in inhibiting the growth of gram-positive bacteria”. The “antibacterial activity in vitro” value in data set [9] is “narrow spectrum antibacterial activity in vitro against gram-positive bacteria”. Further, in data set [12], the “antibacterial activity relative to precursor hydroxylaminoeverninomicin D” value is reported as “antibacterial activity comparable to that of the precursor hydroxylaminoeverninomicin D”. In addition, the “antibacterial activity against resistant bacteria” value in data set [10] is reported as “exhibit antibacterial activity against bacteria which are resistant to other antibacterial agents”.

On to `COCC1OC(OC2OCC3OC4(OCC(O)(C(C)OC)C5OCOC54)OC3C2OC)C(OC)C(O)C1OC1OC(C)C(OC)C(OC2OC(C)C3OC4(CC(O)C(OC5CC(OC6CC(C)(NO)C(OC)C(C)O6)C(OC(=O)c6c(C)c(Cl)c(O)c(Cl)c6OC)C(C)O5)C(C)O4)OC3(C)C2O)C1O` (stereo not shown) [hydroxylaminoeverninomicin B], for which the antibacterial activity entry in data set [7] (U.S. Pat. No. 3,915,956) is reported as “exhibit antibacterial activity”.

With `COCC1OC(OC2OCC3OC4(OCC(O)C5OCOC54)OC3C2OC)C(OC)C(O)C1OC1OC(C)C(OC)C(OC2CC3(C)OC4(CC(O)C(OC5CC(OC6CC(C)(NO)C(OC)C(C)O6)C(OC(=O)c6c(C)c(Cl)c(O)c(Cl)c6OC)C(C)O5)C(C)O4)OC3C(C)O2)C1O` (stereo not shown) [hydroxylaminoeverninomicin C], the antibacterial activity result in data set [7] (U.S. Pat. No. 3,915,956) is recorded as “exhibit antibacterial activity”.

In the case of `COCC1OC(OC2OCC3OC4(OCC(O)(C(C)OC)C5OCOC54)OC3C2OC)C(OC)C(O)C1OC1OC(C)C(OC)C(OC2CC3(C)OC4(CC(O)C(OC5CC(OC6CC(C)(NO)C(OC)C(C)O6)C(OC(=O)c6c(C)c(Cl)c(O)c(Cl)c6OC)C(C)O5)C(C)O4)OC3C(C)O2)C1O` (stereo not shown) [hydroxylaminoeverninomicin D], the antibacterial activity entry in [7] (U.S. Pat. No. 3,915,956) is on record as “exhibit antibacterial activity”.

`COCC1OC(OC2OCC3OC4(OCC(O)(C(C)OC)C5OCOC54)OC3C2OC)C(OC)C(O)C1OC1OC(C)C(OC)C(OC2OC(C)C3OC4(CC(O)C(OC5CC(OC6CC(C)(N=O)C(OC)C(C)O6)C(OC(=O)c6c(C)c(Cl)c(O)c(Cl)c6OC)C(C)O5)C(C)O4)OC3(C)C2O)C1O` (stereo not shown) [nitrosoeverninomicin B]: the antibacterial activity result in [7] (U.S. Pat. No. 3,915,956) is given as “exhibit antibacterial activity”.

For `COCC1OC(OC2OCC3OC4(OCC(O)C5OCOC54)OC3C2OC)C(OC)C(O)C1OC1OC(C)C(OC)C(OC2CC3(C)OC4(CC(O)C(OC5CC(OC6CC(C)(N=O)C(OC)C(C)O6)C(OC(=O)c6c(C)c(Cl)c(O)c(Cl)c6OC)C(C)O5)C(C)O4)OC3C(C)O2)C1O` (stereo not shown) [nitrosoeverninomicin C], the antibacterial activity entry in data set [7] (U.S. Pat. No. 3,915,956) is “exhibit antibacterial activity”.

For `COCC1OC(OC2OCC3OC4(OCC(O)(C(C)OC)C5OCOC54)OC3C2OC)C(OC)C(O)C1OC1OC(C)C(OC)C(OC2CC3(C)OC4(CC(O)C(OC5CC(OC6CC(C)(N=O)C(OC)C(C)O6)C(OC(=O)c6c(C)c(Cl)c(O)c(Cl)c6OC)C(C)O5)C(C)O4)OC3C(C)O2)C1O` (stereo not shown) [nitrosoeverninomicin D], the antibacterial activity entry in [7] (U.S. Pat. No. 3,915,956) is listed as “exhibit antibacterial activity”.
